From US20140004243A1, “SALTY TASTE ENHANCER” (AJINOMOTO CO., INC., priority 2011, published 2014) come the findings set out here.

The subject of assay [1] is human. Briefly: Sensory evaluation of salty taste enhancing activity of compound of the present invention in human. The settings on record: n=5; for salty taste enhancing rate (fold) middle and after taste: after 2 seconds; for salty taste enhancing rate (fold) initial taste: first 2 seconds. Type of assay: in vivo. On the procedure: The intensity of a salty taste enhancing activity and the strength of a bitter taste were examined by a quantitative sensory evaluation test for the compound of the present invention (compounds of Examples 11 and 51).
The quantitative sensory evaluation test was performed as follows. Distilled water containing sodium chloride (0.8 g/dl) was mixed with capsazepine as a sample at 0.001 g/dl, or the compound of Example 11 or Example 51 at 0.0001 to 0.001 g/dl, and the level of a salty taste enhancing activity was measured. Distilled water containing 0.8 g/dl of sodium chloride was used as a control, and distilled water containing 0.9 g/dl or 1.0 g/dl of sodium chloride was used as a comparison target. Using a linear measurement method, a straight line showing 1.0-fold (0.8 g/dl), 1.13-fold (0.9 g/dl), 1.25-fold (1.0 g/dl) positions of sodium chloride concentration was drawn and the position showing the strength of the corresponding salty taste was put down thereon. As for the strength of a bitter taste, using the bitter taste of a solution obtained by mixing distilled water containing sodium chloride (0.8 g/dl) with capsazepine at 0.0001 to 0.001 g/dl as the standard, the strength of the bitter taste of the solution obtained by mixing the compound of Example 11 or Example 51 at 0.0001 to 0.001 g/dl was relatively evaluated by comparison. The points were marked based on 0 point for no bitter taste, and 5.0 points for the strength of the bitter taste of a solution containing 0.001 g/dl capsazepine. The test was performed at n=5. […] The “initial taste” means the evaluation of the strength of the salty taste for 2 seconds after placing in the mouth, and the “middle and after taste” means a combination of middle taste and after taste, which is the evaluation of the strength of the salty taste after 2 seconds from placing in the mouth.

The subject of assay [2] is human. In words: Sensory evaluation of salty taste enhancing activity of capsazepine in human. The assay is classed as in vivo. The settings on record: for strength of salty taste middle and after taste: after 2 seconds; for strength of salty taste middle and after taste / strength of salty taste initial taste: relative to control; for strength of salty taste initial taste: first 2 seconds. The procedure:
The presence or absence of a salty taste enhancing activity in human was examined by a quantitative sensory evaluation test for capsazepine having an ENaC activation to action.
The quantitative sensory evaluation test was performed as follows. Distilled water containing sodium chloride (0.8 g/dl) was mixed with capsazepine as a sample at 0.0001 to 0.001 g/dl, and the level of a salty taste enhancing activity was measured. Distilled water containing 0.8 g/dl of sodium chloride was used as a control, and distilled water containing 0.9 g/dl or 1.0 g/dl of sodium chloride was used as a comparison target. Using a linear measurement method, a straight line showing 1.0-fold (0.8 g/dl), 1.13-fold (0.9 g/dl), 1.25-fold (1.0 g/dl) positions of sodium chloride concentration was drawn and the position showing the strength of the corresponding salty taste was put down thereon. As for the sensory evaluation, an average of the positions put down by the panelists was determined, and an increase in the level of salty taste relative to the level of salty taste in the control was indicated as a salty taste enhancing rate (fold). […] The “initial taste” means the evaluation of the strength of the salty taste for 2 seconds after placing in the mouth, and the “middle and after taste” means a combination of middle taste and after taste, which is the evaluation of the strength of the salty taste after 2 seconds from placing in the mouth.

The mark [3] stands for this setting: sample 0.0001 g/dl in 0.8 g/dl sodium chloride.
The mark [4] stands for this setting: sample 0.0005 g/dl in 0.8 g/dl sodium chloride.
Where [5] appears, read: sample 0.001 g/dl in 0.8 g/dl sodium chloride.

Regarding `C[C@@H](NC(=S)NCCc1ccccc1)c1ccccc1` [Example 11], the results for the “salty taste enhancing rate (fold) middle and after taste” value with human [1] (setting [3]), with human [1] (setting [4]) and in the assay with human [1] (setting [5]) were 1.10 fold, 1.14 fold and 1.14 fold, respectively. The “salty taste enhancing rate (fold) initial taste” value in the assay on human [1] (setting [3]) was found to be 1.10 fold; with human [1] (setting [4]), 1.15 fold; with human [1] (setting [5]) it was 1.13 fold.
Take `OC[C@@H](NC(=S)NCCc1ccccc1)c1ccccc1` [Example 51]: the “salty taste enhancing rate (fold) middle and after taste” value was 1.11 fold with human [1] (setting [3]), 1.17 fold in the assay with human [1] (setting [4]) and 1.17 fold with human [1] (setting [5]). The “salty taste enhancing rate (fold) initial taste” value in the assay with human [1] (setting [3]) came out at 1.09 fold; in the assay with human [1] (setting [4]) it was 1.13 fold; in the assay on human [1] (setting [5]), 1.17 fold.
Take `Oc1cc2c(cc1O)CN(C(=S)NCCc1ccc(Cl)cc1)CCC2` [capsazepine]: in the assay on human [2] (setting [3]), the “strength of salty taste middle and after taste” value (“strength … after taste” for short) was 1.05 fold; the “strength of salty taste initial taste” value is 1.04 fold. Besides, in the assay with human [2] (setting [4]), the “strength … after taste” value was determined as 1.08 fold; the “strength of salty taste initial taste” value came to 1.11 fold. Besides, in the assay on human [2] (setting [5]), the “strength … after taste” value amounted to 1.11 fold; the “strength of salty taste initial taste” value worked out at 1.11 fold. The “salty taste enhancing activity in human” value in the assay with human [2] (summary in words of Table 3) was “has a salty taste enhancing activity in human”. Also, in the assay on human [1] (setting [3]), the “salty taste enhancing rate (fold) middle and after taste” value is given as 1.11 fold; the “salty taste enhancing rate (fold) initial taste” value stood at 1.11 fold.
